Assay results: US7179836B2, “Chemical compounds” (SmithKline Beecham Corporation, priority 2001, dated 2007)

Biological target: Recombinant GST-Tie2 (Homo sapiens, UniProt Q02763)
Test: Tie2 fluorescence polarization kinase activity assay (TIE2-FP)
Assay type: biochemical
Settings: 200 μM ATP, 1 nM activated enzyme, 200 μM peptide
Protocol: Tie2 Fluorescence Polarization Kinase Activity Assay (TIE2-FP).
Activation of Recombinant Tie2 Activation:
Recombinant GST-Tie2 is activated by incubating the enzyme in 20 mM Tris-HCl, pH 7.5, 12 mM MgCl2, 100 mM NaCl, 20 μM sodium vanidate, 1 mM DTT and 300 μM ATP at room temperature for 2 hours. The activation mixture is then passed through a NAP-25 desalting column (Pharmacia Biotech cat. no. 17-0852-02) to remove the free ATP. The activated enzyme is stored as aliquots at −80° C. in 20 mM Tris-HCl, pH 7.5 and 100 mM NaCl.
The final assay conditions are 50 mM HEPES, pH 7.5, 5% DMSO (when screening compounds), 200 μM ATP, 5 mM MgCl2, 1 mM DTT, 50 μM sodium vanidate, 1 nM activated enzyme, and 200 μM peptide. IC50's of compounds are measured under subsaturating ATP (200 μM) and varing concentrations of activated Tie2 and peptide substrate (RFWKYEFWR-OH; MW 1873 Da, TFA salt). Panvera Anti-phosphotyrosine antibody (Cat#P2840) and PTK Green Tracer (Cat#P2842) are used to detect the phosphorylated peptide. Polarization is measured on a TECAN Polarion in 138-second cycles for 30 minutes at room temperature. IC50's are then determined from the % polarization using normal calculation methods.

Sequence of Recombinant GST-Tie2 (Q02763 23-1124): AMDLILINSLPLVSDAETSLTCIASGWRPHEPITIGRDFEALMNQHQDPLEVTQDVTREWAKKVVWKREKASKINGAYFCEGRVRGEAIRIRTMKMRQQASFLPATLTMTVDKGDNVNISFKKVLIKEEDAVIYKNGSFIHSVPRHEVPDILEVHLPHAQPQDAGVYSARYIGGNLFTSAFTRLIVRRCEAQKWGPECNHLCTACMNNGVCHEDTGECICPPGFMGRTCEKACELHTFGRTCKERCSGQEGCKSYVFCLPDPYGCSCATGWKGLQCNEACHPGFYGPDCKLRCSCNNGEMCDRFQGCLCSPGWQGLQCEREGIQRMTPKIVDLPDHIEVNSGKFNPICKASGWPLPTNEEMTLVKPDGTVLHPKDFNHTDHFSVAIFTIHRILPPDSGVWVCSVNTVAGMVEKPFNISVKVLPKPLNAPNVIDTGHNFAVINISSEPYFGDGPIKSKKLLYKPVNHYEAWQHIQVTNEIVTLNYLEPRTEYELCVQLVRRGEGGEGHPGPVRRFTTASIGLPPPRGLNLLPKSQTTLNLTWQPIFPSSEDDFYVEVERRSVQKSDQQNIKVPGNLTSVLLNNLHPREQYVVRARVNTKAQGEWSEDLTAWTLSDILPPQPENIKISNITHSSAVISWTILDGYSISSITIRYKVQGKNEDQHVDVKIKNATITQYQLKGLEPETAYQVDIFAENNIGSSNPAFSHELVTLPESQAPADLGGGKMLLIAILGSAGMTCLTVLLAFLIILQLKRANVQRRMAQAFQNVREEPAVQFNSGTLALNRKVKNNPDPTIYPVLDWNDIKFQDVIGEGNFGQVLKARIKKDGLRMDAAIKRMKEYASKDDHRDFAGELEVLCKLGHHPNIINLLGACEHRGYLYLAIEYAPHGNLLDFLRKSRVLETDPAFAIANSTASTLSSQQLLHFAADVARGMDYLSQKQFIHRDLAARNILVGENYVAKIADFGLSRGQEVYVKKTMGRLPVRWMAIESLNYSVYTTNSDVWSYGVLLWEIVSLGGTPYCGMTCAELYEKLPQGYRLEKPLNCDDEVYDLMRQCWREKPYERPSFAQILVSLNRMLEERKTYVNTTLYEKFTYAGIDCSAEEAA

- IC50: < 100 nM
SMILES: NC(=O)c1c(-c2ccc(NC(=O)Nc3cc(C(F)(F)F)ccc3F)cc2)csc1N [Example 1, 2-Amino-4-{4-[3-(2-fluoro-5-trifluoromethyl-phenyl)-ureido]-phenyl}-thiophene-3-carboxylic acid amide]
